From ChEMBL document CHEMBL1149348, “Tubulin polymerization inhibitors with a fluorinated phthalimide skeleton derived from thalidomide” (Bioorg Med Chem Lett, 2006)
The source made the active and inactive calls. No cut-off for these calls is given here.

Assays:
Tubulin (Sus scrofa) [1] = biological target: T1, Tubulin (Sus scrofa) (UniProt P02554+P02550); assay: Inhibition of tubulin polymerization in porcine brain at 20 uM
Tubulin = Tubulin (Sus scrofa, UniProt P02554+P02550); assay: Inhibition of tubulin polymerization in porcine brain
Tubulin (Sus scrofa) [2] = biological target: T1, Tubulin (Sus scrofa); assay: Inhibition of tubulin depolymerization in porcine brain at 10 uM

T1 sequence (P02550 whole entry, looked up): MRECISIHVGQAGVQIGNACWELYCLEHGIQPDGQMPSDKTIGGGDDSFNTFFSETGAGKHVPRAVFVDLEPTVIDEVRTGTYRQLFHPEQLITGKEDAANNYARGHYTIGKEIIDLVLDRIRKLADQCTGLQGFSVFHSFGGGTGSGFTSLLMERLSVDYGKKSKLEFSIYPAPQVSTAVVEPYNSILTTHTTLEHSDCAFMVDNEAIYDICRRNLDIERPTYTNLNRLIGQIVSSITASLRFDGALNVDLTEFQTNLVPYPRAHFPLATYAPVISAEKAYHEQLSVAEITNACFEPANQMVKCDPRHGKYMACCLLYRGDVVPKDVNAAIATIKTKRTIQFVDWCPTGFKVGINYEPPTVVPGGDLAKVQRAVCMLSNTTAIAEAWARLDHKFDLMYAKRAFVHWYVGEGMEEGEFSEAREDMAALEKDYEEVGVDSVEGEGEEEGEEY
T1 sequence (P02554 whole entry, looked up): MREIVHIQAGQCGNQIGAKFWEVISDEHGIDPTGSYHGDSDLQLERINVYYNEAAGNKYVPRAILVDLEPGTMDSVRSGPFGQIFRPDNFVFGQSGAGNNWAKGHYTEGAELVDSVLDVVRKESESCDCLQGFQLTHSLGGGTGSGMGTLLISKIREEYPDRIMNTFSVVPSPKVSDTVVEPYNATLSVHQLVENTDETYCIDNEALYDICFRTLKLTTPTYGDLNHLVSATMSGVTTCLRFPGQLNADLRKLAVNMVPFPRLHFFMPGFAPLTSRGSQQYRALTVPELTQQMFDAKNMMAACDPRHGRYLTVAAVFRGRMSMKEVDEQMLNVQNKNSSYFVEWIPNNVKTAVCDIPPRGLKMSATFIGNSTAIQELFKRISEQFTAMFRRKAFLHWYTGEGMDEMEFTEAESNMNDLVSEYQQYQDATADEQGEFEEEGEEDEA

inhibition (Tubulin (Sus scrofa) [1]) [%]	IC50 (Tubulin) [µM]	Activity (Tubulin (Sus scrofa) [2])	Compound
0			CCCc1cccc(CCC)c1N1C(=O)c2c(Cl)c(Cl)c(Cl)c(Cl)c2C1=O
10			CC(C)c1ccc([N+](=O)[O-])c(C(C)C)c1N1C(=O)c2c(F)c(F)c(F)c(F)c2C1=O
10			Cc1cccc(C)c1N1C(=O)c2c(F)c(F)c(F)c(F)c2C1=O
8			CC(C)c1cccc(C(C)C)c1N1C(=O)c2cc(F)c(F)cc2C1=O
18			CCc1cccc(CC)c1N1C(=O)c2c(F)c(F)c(F)c(F)c2C1=O
6			O=C1c2c(Cl)c(Cl)c(Cl)c(Cl)c2C(=O)N1c1ccccc1
10			CC(C)c1ccccc1N1C(=O)c2c(F)c(F)c(F)c(F)c2C1=O
73	17		CC(C)c1cccc(C(C)C)c1N1C(=O)c2cccc(F)c2C1=O
71	16		CC(C)c1cccc(C(C)C)c1N1C(=O)c2c(F)c(F)c(F)c(F)c2C1=O
3			CC(C)c1cccc(C(C)C)c1N1C(=O)c2ccccc2C1=O
78	7.8	inactive	CC(C)c1cccc(C(C)C)c1N1C(=O)c2c(F)ccc(F)c2C1=O
0			Cc1cccc(C)c1N1C(=O)c2c(Cl)c(Cl)c(Cl)c(Cl)c2C1=O
9			CC(C)c1cccc(C(C)C)c1N1C(=O)c2ccc(F)cc2C1=O
	6.9		CC(C)c1cccc(C(C)C)c1N1C(=O)c2ccc(O)cc2C1=O
11			CC(C)c1cc(Br)cc(C(C)C)c1N1C(=O)c2c(F)c(F)c(F)c(F)c2C1=O
7			O=C1c2c(F)c(F)c(F)c(F)c2C(=O)N1c1ccccc1

Compound	inhibition (Tubulin (Sus scrofa) [1]) [%]	IC50 (Tubulin) [µM]	Activity (Tubulin (Sus scrofa) [2])
CO[C@@H](/C(C)=C/C=C/C(C)=C/c1coc(C)n1)[C@@H](C)[C@@H]1C[C@H](O)[C@@]2(C)O[C@@H]2/C=C/[C@@H](C)[C@H]2C[C@H](CC(=O)O2)C[C@@H]2O[C@H]2C(=O)O1	81		
